# Columns and labels:
# E. coli = settings: added in the polyurethane reaction mixture in amounts of 0.1 wt % to 0.5 wt %
# S. aureus = settings: added in the polyurethane reaction mixture in amounts of 0.1 wt % to 0.5 wt %
substance,measurement,setting,value
zinc pyrithione,effectiveness against E. coli,E. coli,particularly effective
same,effectiveness against S. aureus,S. aureus,particularly effective

# Source: patent publication US20250052016A1, “ARTIFICIAL TURF COMPRISING ANTIMICROBIAL POLYURETHANE BACKING” (Synthetic Turf Resources (STR), priority 2022, published 2025)
